Assay results: publication PMC6753193 (Frontiers in Microbiology, 2019)
Read-outs that look alike come from different tables or passages of the source.

Key:
EBOV = conditions: cited from earlier work
EBOV VP30 = assay type: cell-based, Ebola virus
PP1:cdNIPP1 helix MUT = PP1:cdNIPP1 helix MUT (Homo sapiens, UniProt P62136); test: cell-based
PP1 MUT:cdNIPP1 RATA = PP1 MUT:cdNIPP1 RATA (Homo sapiens, UniProt P62136, A299E/G274E/L73Y/Y70W); test: cell-based
[1] = 1 h, pH 7.4
EBOV minigenome = assay type: cell-based, Ebola virus
EBOV-eGFP [2] = test: microbe, parasite or virus in culture; assay type: cell-based, Ebola virus; conditions: Zaire ebolavirus, Vero C1008, 48 h, read-out: IC50 EBOV inhibition (virus titer)
PP1 MUT:cdNIPP1 = PP1 MUT:cdNIPP1 (Homo sapiens, UniProt P62136, A299E/G274E/L73Y/Y70W); test: cell-based
PP1:cdNIPP1 = PP1:cdNIPP1 (Homo sapiens, UniProt P62136); test: cell-based
PP1:cdNIPP1 RATA = PP1:cdNIPP1 RATA (Homo sapiens, UniProt P62136); test: cell-based
[3] = 1 h, pH 7.4; remark: listed apart in the source
in vitro [4] = conditions: human
WT PP1 = WT PP1 (Homo sapiens, UniProt P62136); test: biochemical; assay type: binding
[5] = 24 h
PP1 [6] = biological target: T1, PP1 (Homo sapiens, UniProt P62136); assay type: binding
PP1 [7] = biological target: PP1 (Homo sapiens, UniProt P36873); assay type: cell-based
PP1α = PP1α (Oryctolagus cuniculus, UniProt P62139); assay type: biochemical
in vitro [8] = conditions: mouse, serum
PP1 [9] = biological target: T1, PP1; assay type: binding; remark: listed apart in the source
EBOV-eGFP [10] = test: microbe, parasite or virus in culture; assay type: cell-based, Ebola virus

WT PP1, sequence (P62136 7-300 limits assumed): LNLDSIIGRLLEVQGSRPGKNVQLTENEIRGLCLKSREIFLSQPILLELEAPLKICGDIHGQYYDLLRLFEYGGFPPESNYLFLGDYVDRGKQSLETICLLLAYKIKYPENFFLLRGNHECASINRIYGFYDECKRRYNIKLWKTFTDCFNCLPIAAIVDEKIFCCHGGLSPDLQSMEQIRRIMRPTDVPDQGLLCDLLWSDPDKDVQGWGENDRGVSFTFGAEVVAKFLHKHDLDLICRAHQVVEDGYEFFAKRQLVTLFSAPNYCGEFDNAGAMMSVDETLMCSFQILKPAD
T1 sequence (P62136 7-300 limits assumed): as above
PP1:cdNIPP1 RATA, sequence (P62136 whole entry, looked up): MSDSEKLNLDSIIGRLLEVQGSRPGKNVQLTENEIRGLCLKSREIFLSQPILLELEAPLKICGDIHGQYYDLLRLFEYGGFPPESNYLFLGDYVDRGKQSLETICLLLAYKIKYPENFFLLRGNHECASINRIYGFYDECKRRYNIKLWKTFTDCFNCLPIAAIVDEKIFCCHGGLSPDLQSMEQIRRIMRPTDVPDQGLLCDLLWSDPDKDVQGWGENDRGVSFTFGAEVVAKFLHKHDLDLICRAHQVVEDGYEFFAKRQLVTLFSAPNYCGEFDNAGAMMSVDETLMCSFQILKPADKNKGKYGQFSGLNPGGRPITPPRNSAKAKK
PP1:cdNIPP1, sequence (P62136 whole entry, looked up): as above
PP1:cdNIPP1 helix MUT, sequence (P62136 whole entry, looked up): as above
PP1 MUT:cdNIPP1, sequence (P62136 whole entry Y70W/L73Y/G274E/A299E, looked up): as the sequence (P62136 whole entry, looked up) above, with Y70W, L73Y, G274E, A299E counted along it
PP1 MUT:cdNIPP1 RATA, sequence (P62136 whole entry Y70W/L73Y/G274E/A299E, looked up): as the sequence (P62136 whole entry, looked up) above, with Y70W, L73Y, G274E, A299E counted along it
PP1α, sequence (P62139 whole entry, looked up): as the sequence (P62136 whole entry, looked up) above
PP1 (Homo sapiens, UniProt P36873), sequence (P36873 whole entry, looked up): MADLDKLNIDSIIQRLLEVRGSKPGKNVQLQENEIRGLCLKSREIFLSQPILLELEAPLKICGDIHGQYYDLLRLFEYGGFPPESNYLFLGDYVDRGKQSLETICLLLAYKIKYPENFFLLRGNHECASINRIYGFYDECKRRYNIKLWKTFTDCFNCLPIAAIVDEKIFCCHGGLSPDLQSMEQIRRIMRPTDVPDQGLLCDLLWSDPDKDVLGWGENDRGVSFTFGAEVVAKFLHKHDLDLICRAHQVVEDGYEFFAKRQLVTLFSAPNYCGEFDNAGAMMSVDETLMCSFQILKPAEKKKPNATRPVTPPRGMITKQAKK

**Q.** For CCNC(=O)NC(=O)C(C)OC(=O)c1c2c(nc3ccccc13)/C(=C\c1cccc([N+](=O)[O-])c1)CCC2 (centres unmarked) [1E7], which EBOV inhibition (EBOV) is on record?
**A.** inhibited EBOV

**Q.** Which “increase of VP30 phosphopeptides (Thr-119 and Ser-124) vs DMSO control” value (EBOV VP30) does the source give for C=C1[C@@H](O)[C@@H]2O[C@]3(CC[C@H](/C=C/[C@@H](C)[C@@H]4CC(C)=C[C@@]5(O[C@H](C[C@@](C)(O)C(=O)O)CC[C@H]5O)O4)O3)CC[C@H]2O[C@@H]1[C@@H](O)C[C@H](C)[C@H]1O[C@@]2(CCCCO2)CC[C@H]1C [okadaic acid] here?
**A.** 3.3 fold

**Q.** Which results are given for CCNC(=O)NC(=O)C(C)OC(=O)c1c2c(nc3ccccc13)/C(=C\c1ccc(OC)c(OC)c1)CC2 (centres unmarked) [1E7-03]?
**A.** IC50 (PP1:cdNIPP1 helix MUT): 2.4 µM; remaining in human serum (10 μM, 37°C, after 24 h): 78%; effect on cellular viability (HEK293T cells): no effect on cellular viability; IC50 (PP1 MUT:cdNIPP1 RATA): > 20 µM; remained intact in mouse liver microsomes [1]: over 90%; inhibition of EBOV gene expression (Renilla luciferase) (EBOV minigenome; 10 μM): strongly inhibit; IC50 (EBOV-eGFP [2]): 7.2 µM; IC50 (PP1 MUT:cdNIPP1): 2.7 µM; IC50 (PP1:cdNIPP1): 1.5 µM; IC50 (PP1:cdNIPP1 RATA): > 20 µM; remaining in human liver microsomes [3]: 60%; CC50 (in vitro [4]): > 300 µM

**Q.** With CC[C@H](C)[C@H](NC(=O)[C@H](Cc1ccccc1)NC(=O)[C@H](CS)NC(=O)[C@@H](NC(=O)[C@H](CCC(N)=O)NC(=O)[C@H](CS)NC(=O)[C@H](Cc1c[nH]cn1)NC(=O)[C@H](Cc1ccccc1)NC(=O)[C@H](CS)NC(=O)[C@H](CS)NC(=O)[C@H](CCCCN)NC(=O)[C@H](CCCCN)NC(=O)[C@H](CCCNC(=N)N)NC(=O)[C@H](CC(C)C)NC(=O)[C@@H]1CCCN1C(=O)[C@H](CO)NC(=O)[C@H](CO)NC(=O)[C@@H]1CCCN1C(=O)[C@H](Cc1ccccc1)NC(=O)[C@H](CCCCN)NC(=O)[C@H](Cc1ccc(O)cc1)NC(=O)[C@@H]1CCCN1C(=O)[C@H](COP(=O)(O)O)NC(=O)[C@H](CCCNC(=N)N)NC(=O)[C@@H]1CCCN1C(=O)[C@@H](NC(=O)[C@@H](N)Cc1c[nH]cn1)[C@@H](C)CC)C(C)C)C(=O)N[C@H](C(=O)N[C@@H](CCCCN)C(=O)O)[C@@H](C)O [pRb-Tat, reference compound] as the molecule, how does the Rmax (WT PP1) read?
**A.** 212.4 RU

**Q.** Which Kd (WT PP1) does the source give for COc1ccc(C=C2CCc3c2nc2ccccc2c3C(=O)OC(C)C(=O)NC2CC2)cc1OC (centres unmarked) [1E7-07] here?
**A.** 0.661 µM

**Q.** What about the Rmax (WT PP1) of the same molecule?
**A.** 9.763 RU

**Q.** What about the kd (WT PP1) of the same molecule?
**A.** 0.0009566 s⁻¹

**Q.** And the kon (WT PP1; pH 7.4, read-out: ka)?
**A.** 1450 M⁻¹ s⁻¹

**Q.** And the IC50 (PP1:cdNIPP1 helix MUT)?
**A.** 4.3 µM

**Q.** And the “remaining in human serum” value (human, serum, 24 h)?
**A.** no degradation

**Q.** And the “remained in mouse serum” value [5]?
**A.** 25%

**Q.** What about the “effect on cellular viability” value (HEK293T cells) of the same molecule?
**A.** no effect on cellular viability

**Q.** What about the IC50 (PP1 MUT:cdNIPP1 RATA) of the same molecule?
**A.** > 20 µM

**Q.** What about the “remained intact in mouse liver microsomes” value [1] of the same molecule?
**A.** over 90%

**Q.** What about the “protection of peptide 75[…]96 from ELNLLB painting” value (PP1 [6]) of the same molecule?
**A.** over 90%

**Q.** And the “recovered peptide signals compared to the control (protection from ELNLLB painting)” value (PP1 [6])?
**A.** over 70%

**Q.** And the “inhibition of EBOV gene expression (Renilla luciferase)” value (EBOV minigenome)?
**A.** strongly inhibit

**Q.** And the “effect on PP1 cellular localization” value (PP1 [7])?
**A.** does not affect

**Q.** What about the IC50 (EBOV-eGFP [2]) of the same molecule?
**A.** 8.6 µM

**Q.** What about the “effect on PP1 enzymatic activity” value (PP1α) of the same molecule?
**A.** no effect

**Q.** What about the IC50 (PP1 MUT:cdNIPP1) of the same molecule?
**A.** 4.5 µM

**Q.** And the IC50 (PP1:cdNIPP1)?
**A.** 3.7 µM

**Q.** And the “toxicity (Viral ToxGlo)” value (Vero-E6 cells)?
**A.** no toxicity

**Q.** What about the half-life (in vitro [8]) of the same molecule?
**A.** 6 h

**Q.** And the “competition with pRb-Tat peptide binding to PP1” value (PP1 [9])?
**A.** competed dose-dependently

**Q.** And the IC50 (PP1:cdNIPP1 RATA)?
**A.** > 20 µM

**Q.** And the “remaining in human liver microsomes” value [3]?
**A.** 90%

**Q.** What about the “EBOV inhibitory activity (comparison among analogs)” value (EBOV-eGFP [10]) of the same molecule?
**A.** best EBOV inhibitory activity

**Q.** What about the inhibition at 10 µM (EBOV-eGFP [10]; Zaire ebolavirus, Vero C1008, 72 h, read-out: EBOV inhibitory activity) of the same molecule?
**A.** ~70%

**Q.** And the CC50 (in vitro [4])?
**A.** > 300 µM
